Results: ChEMBL document CHEMBL3870338, “Microwave assisted synthesis of novel tetrazole/sulfonamide derivatives based on octahydroacridine, xanthene and chromene skeletons as inhibitors of the carbonic anhydrases isoforms I, II, IV and VII” (Bioorg Med Chem Lett, 2017)

How the values were obtained:
[1] = target: Carbonic anhydrase 4 (Homo sapiens, UniProt P22748); assay: Inhibition of human recombinant carbonic anhydrase 4 expressed in Escherichia coli assessed as reduction in CO2 hydration preincubated for 15 mins prior to testing measured for 10 to 100 secs by stopped-flow assay
Sequence of Carbonic anhydrase 4 (P22748 whole entry): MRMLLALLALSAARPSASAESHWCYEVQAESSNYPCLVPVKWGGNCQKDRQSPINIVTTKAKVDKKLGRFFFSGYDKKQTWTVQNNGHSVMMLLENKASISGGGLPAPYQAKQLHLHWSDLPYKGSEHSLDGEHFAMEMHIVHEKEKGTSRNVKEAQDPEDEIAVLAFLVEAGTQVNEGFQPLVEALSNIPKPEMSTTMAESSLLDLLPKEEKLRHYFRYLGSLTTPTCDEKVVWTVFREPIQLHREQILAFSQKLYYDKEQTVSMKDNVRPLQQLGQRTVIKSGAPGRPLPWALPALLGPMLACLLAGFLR

[2] = target: Carbonic anhydrase 7 (Homo sapiens, UniProt P43166); assay: Inhibition of human recombinant carbonic anhydrase 7 expressed in Escherichia coli assessed as reduction in CO2 hydration preincubated for 15 mins prior to testing measured for 10 to 100 secs by stopped-flow assay
Sequence of Carbonic anhydrase 7 (P43166 whole entry): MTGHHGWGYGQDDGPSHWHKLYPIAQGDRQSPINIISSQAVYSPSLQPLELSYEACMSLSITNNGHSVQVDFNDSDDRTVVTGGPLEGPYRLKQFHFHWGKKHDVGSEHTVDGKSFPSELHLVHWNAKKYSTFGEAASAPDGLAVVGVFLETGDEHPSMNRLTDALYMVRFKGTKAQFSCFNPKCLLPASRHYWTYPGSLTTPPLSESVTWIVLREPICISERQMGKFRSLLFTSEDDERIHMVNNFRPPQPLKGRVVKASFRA

[3] = target: Carbonic anhydrase 1 (Homo sapiens, UniProt P00915); assay: Inhibition of human recombinant carbonic anhydrase 1 expressed in Escherichia coli assessed as reduction in CO2 hydration preincubated for 15 mins prior to testing measured for 10 to 100 secs by stopped-flow assay
Sequence of Carbonic anhydrase 1 (P00915 whole entry): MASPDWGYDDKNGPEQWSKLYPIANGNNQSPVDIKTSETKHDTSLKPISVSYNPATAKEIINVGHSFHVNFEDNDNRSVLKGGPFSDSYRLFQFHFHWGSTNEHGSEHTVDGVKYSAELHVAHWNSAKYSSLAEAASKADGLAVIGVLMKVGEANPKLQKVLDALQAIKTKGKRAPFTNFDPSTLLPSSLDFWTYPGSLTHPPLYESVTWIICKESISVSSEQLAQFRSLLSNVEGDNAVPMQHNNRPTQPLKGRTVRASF

[4] = target: Carbonic anhydrase 2 (Homo sapiens, UniProt P00918); assay: Inhibition of human recombinant carbonic anhydrase 2 expressed in Escherichia coli assessed as reduction in CO2 hydration preincubated for 15 mins prior to testing measured for 10 to 100 secs by stopped-flow assay

Measured: Ki

O=C1CCCC2=C1C(c1cccc(-c3nnn[nH]3)c1)C1=C(CCCC1=O)O2
> 10 µM: all assays above

O=Cc1cccc(-c2nnn[nH]2)c1
> 10 µM: all assays above

N#CC1=C(N)OC2=C(C(=O)CCC2)C1c1cccc(-c2nnn[nH]2)c1 (stereo not given)
> 10 µM: all assays above

O=C1CCCC2=C1C(c1ccc(-c3nnn[nH]3)cc1)C1=C(CCCC1=O)O2
> 10 µM: all assays above

O=Cc1ccc(-c2nnn[nH]2)cc1
> 10 µM: all assays above

CC1(C)CC(=O)C2=C(C1)OC(N)=C(C#N)C2c1ccc(-c2nnn[nH]2)cc1 (stereo not given)
> 10 µM: all assays above

CC1(C)CC(=O)C2=C(C1)OC1=C(C(=O)CC(C)(C)C1)C2c1cccc(-c2nnn[nH]2)c1
> 10 µM: all assays above

CC1(C)CC(=O)C2=C(C1)OC(N)=C(C#N)C2c1cccc(-c2nnn[nH]2)c1 (stereo not given)
> 10 µM: all assays above

CC1(C)CC(=O)C2=C(C1)OC1=C(C(=O)CC(C)(C)C1)C2c1ccc(-c2nnn[nH]2)cc1
> 10 µM: all assays above

N#CC1=C(N)OC2=C(C(=O)CCC2)C1c1ccc(-c2nnn[nH]2)cc1 (stereo not given)
> 10 µM: all assays above
